Molecules are shown by their SMILES. The source made the active and inactive calls. How the calls were made is not given here.

The subject of the data set is CCRIS mutagenicity, Ames/micronucleus/aberration tests. In words: CCRIS mutagenicity studies.
Where [1] appears, read: Test System: AMES SALMONELLA TYPHIMURIUM, Strain/Indicator: TA98, Metabolic Activation: NONE, Method: STANDARD PLATE.
[2] abbreviates: Test System: AMES SALMONELLA TYPHIMURIUM, Strain/Indicator: TA100, Metabolic Activation: NONE, Method: STANDARD PLATE.
[3] abbreviates: Test System: AMES SALMONELLA TYPHIMURIUM, Strain/Indicator: TA98, Metabolic Activation: NONE, Method: PREINCUBATION
Setting [4] is: Test System: AMES SALMONELLA TYPHIMURIUM, Strain/Indicator: TA100, Metabolic Activation: NONE, Method: PREINCUBATION
The mark [5] stands for this setting: Test System: AMES SALMONELLA TYPHIMURIUM, Strain/Indicator: TA97, Metabolic Activation: HAMSTER, LIVER, S-9, AROCLOR 1254 (10 OR 30%), Method: PREINCUBATION
The mark [6] stands for this setting: Test System: AMES SALMONELLA TYPHIMURIUM, Strain/Indicator: TA97, Metabolic Activation: NONE, Method: PREINCUBATION
[7] abbreviates: Test System: AMES SALMONELLA TYPHIMURIUM, Strain/Indicator: TA97, Metabolic Activation: RAT, LIVER, S-9, AROCLOR 1254 (10 OR 30%), Method: PREINCUBATION
[8] abbreviates: Test System: AMES SALMONELLA TYPHIMURIUM, Strain/Indicator: TA98, Metabolic Activation: HAMSTER, LIVER, S-9, AROCLOR 1254 (10 OR 30%), Method: PREINCUBATION
Where [9] appears, read: Test System: AMES SALMONELLA TYPHIMURIUM, Strain/Indicator: TA98, Metabolic Activation: RAT, LIVER, S-9, AROCLOR 1254 (10 OR 30%), Method: PREINCUBATION
The mark [10] stands for this setting: Test System: AMES SALMONELLA TYPHIMURIUM, Strain/Indicator: TA100, Metabolic Activation: HAMSTER, LIVER, S-9, AROCLOR 1254 (10 OR 30%), Method: PREINCUBATION
The mark [11] stands for this setting: Test System: AMES SALMONELLA TYPHIMURIUM, Strain/Indicator: TA100, Metabolic Activation: RAT, LIVER, S-9, AROCLOR 1254 (10 OR 30%), Method: PREINCUBATION
Where [12] appears, read: Test System: AMES SALMONELLA TYPHIMURIUM, Strain/Indicator: TA1535, Metabolic Activation: HAMSTER, LIVER, S-9, AROCLOR 1254 (10 OR 30%), Method: PREINCUBATION
Where [13] appears, read: Test System: AMES SALMONELLA TYPHIMURIUM, Strain/Indicator: TA1535, Metabolic Activation: NONE, Method: PREINCUBATION
[14] abbreviates: Test System: AMES SALMONELLA TYPHIMURIUM, Strain/Indicator: TA1535, Metabolic Activation: RAT, LIVER, S-9, AROCLOR 1254 (10 OR 30%), Method: PREINCUBATION
[15] abbreviates: Test System: AMES SALMONELLA TYPHIMURIUM, Strain/Indicator: TA100, Metabolic Activation: RAT, LIVER, S-9, AROCLOR 1254, Method: STANDARD PLATE.

Consider `COc1ccc(-c2nc(-c3ccc(C)cc3)c(-c3ccc(C)cc3)[nH]2)cc1OC`, for which the mutagenic call under setting [1] was “active; positive”; the mutagenic call (Test System: AMES SALMONELLA TYPHIMURIUM, Strain/Indicator: TA98, Metabolic Activation: RAT LIVER S-9, 3-METHYLCHOLANTHRENE, SODIUM PHENOBARBITAL, Method: STANDARD PLATE) is “inactive; negative”; the mutagenic call under setting [2] is “active; positive”; the mutagenic call (Test System: AMES SALMONELLA TYPHIMURIUM, Strain/Indicator: TA100, Metabolic Activation: RAT LIVER S-9, 3-METHYLCHOLANTHRENE, SODIUM PHENOBARBITAL, Method: STANDARD PLATE) is “inactive; negative”.

Take `Nc1cc2c3c(ccc2c2ccccc12)[C@H](O)[C@@H](O)C=C3`: the mutagenic call under setting [3] was “inactive; negative”; the mutagenic call (Test System: AMES SALMONELLA TYPHIMURIUM, Strain/Indicator: TA98, Metabolic Activation: RAT, LIVER, S-9, AROCLOR 1254, Method: PREINCUBATION) is “inactive; negative”; the mutagenic call under setting [4] is “active; positive”; the mutagenic call (Test System: AMES SALMONELLA TYPHIMURIUM, Strain/Indicator: TA100, Metabolic Activation: RAT, LIVER, S-9, AROCLOR 1254, Method: PREINCUBATION) was “active; positive”; the mutagenic call (Test System: CHINESE HAMSTER OVARY, Strain/Indicator: CHO-K1-BH4 (HGPRT)/6-THIOGUANINE, Metabolic Activation: NONE, Method: STANDARD PLATE) is “inactive; negative”; the mutagenic call (Test System: CHINESE HAMSTER OVARY, Strain/Indicator: CHO-K1-BH4 (HGPRT)/6-THIOGUANINE, Metabolic Activation: RAT, LIVER, S-9, AROCLOR 1254, Method: STANDARD PLATE) was “active; positive”. Further, the mutagenic call runs as follows: (Test System: CHINESE HAMSTER OVARY, Strain/Indicator: CHO-UV5 (HGPRT)/6-THIOGUANINE, Metabolic Activation: NONE, Method: STANDARD PLATE) “inactive; negative”; (Test System: CHINESE HAMSTER OVARY, Strain/Indicator: CHO-UV5 (HGPRT)/6-THIOGUANINE, Metabolic Activation: RAT, LIVER, S-9, AROCLOR 1254, Method: STANDARD PLATE) “active; positive”.

Turning to `N#CCCCCC#N`, the mutagenic call under setting [5] was “inactive; negative”; the mutagenic call under setting [6] is “inactive; negative”; the mutagenic call under setting [7] is “inactive; negative”; the mutagenic call under setting [8] was “inactive; negative”; the mutagenic call under setting [3] was “inactive; negative”; the mutagenic call under setting [9] was “inactive; negative”. Further, the mutagenic call is “inactive; negative” under setting [10]; “inactive; negative” under setting [4]; “inactive; negative” under setting [11]; “inactive; negative” under setting [12]; “inactive; negative” under setting [13]; “inactive; negative” under setting [14].

For `Nc1ccc(S(=O)(=O)O)cc1`, the mutagenic call under setting [5] is “inactive; negative”; the mutagenic call under setting [6] is “inactive; negative”; the mutagenic call under setting [7] was “inactive; negative”; the mutagenic call under setting [8] is “inactive; negative”; the mutagenic call under setting [3] was “inactive; negative”; the mutagenic call under setting [9] is “inactive; negative”. Further, the mutagenic call (Test System: AMES SALMONELLA TYPHIMURIUM, Strain/Indicator: TA98, Metabolic Activation: RAT, LIVER, S-9, PHENOBARBITAL, Method: PREINCUBATION) was “inactive; negative”; the mutagenic call under setting [10] is “inactive; negative”; the mutagenic call under setting [4] was “inactive; negative”; the mutagenic call under setting [11] is “inactive; negative”; the mutagenic call (Test System: AMES SALMONELLA TYPHIMURIUM, Strain/Indicator: TA100, Metabolic Activation: RAT, LIVER, S-9, PHENOBARBITAL, Method: PREINCUBATION) is “inactive; negative”; the mutagenic call under setting [12] is “inactive; negative”. The mutagenic call under setting [13] was “inactive; negative”; the mutagenic call under setting [14] is “inactive; negative”; the mutagenic call (Test System: Ames Salmonella typhimurium, Strain/Indicator: TA102, Metabolic Activation: None, Method: Preincubation) is “inactive; negative”; the mutagenic call (Test System: Ames Salmonella typhimurium, Strain/Indicator: TA102, Metabolic Activation: Rat, Liver, S9, Aroclor 1254, Method: Preincubation) is “inactive; negative”; the mutagenic call (Test System: Ames Salmonella typhimurium, Strain/Indicator: TA104, Metabolic Activation: None, Method: Preincubation) was “inactive; negative”; the mutagenic call (Test System: Ames Salmonella typhimurium, Strain/Indicator: TA104, Metabolic Activation: Rat, Liver, S9, Aroclor 1254, Method: Preincubation) was “inactive; negative”.

As for `Nc1cc2c(O)c(N=Nc3ccc(N=Nc4ccc(S(=O)(=O)O)cc4)c4ccc(S(=O)O)cc34)c(S(=O)(=O)O)cc2cc1S(=O)(=O)O`, the mutagenic call by setting is: under setting [1], “inactive; negative”; (Test System: AMES SALMONELLA TYPHIMURIUM, Strain/Indicator: TA98, Metabolic Activation: RAT, LIVER, S-9, AROCLOR 1254, Method: STANDARD PLATE) “inactive; negative”; under setting [2], “inactive; negative”; under setting [15], “inactive; negative”; (Test System: AMES SALMONELLA TYPHIMURIUM, Strain/Indicator: TA1535, Metabolic Activation: NONE, Method: STANDARD PLATE) “inactive; negative”; (Test System: AMES SALMONELLA TYPHIMURIUM, Strain/Indicator: TA1535, Metabolic Activation: RAT, LIVER, S-9, AROCLOR 1254, Method: STANDARD PLATE) “inactive; negative”. Moreover, the mutagenic call was “inactive; negative” (Test System: AMES SALMONELLA TYPHIMURIUM, Strain/Indicator: TA1537, Metabolic Activation: NONE, Method: STANDARD PLATE); “inactive; negative” (Test System: AMES SALMONELLA TYPHIMURIUM, Strain/Indicator: TA1537, Metabolic Activation: RAT, LIVER, S-9, AROCLOR 1254, Method: STANDARD PLATE); “inactive; negative” (Test System: AMES SALMONELLA TYPHIMURIUM, Strain/Indicator: TA1538, Metabolic Activation: NONE, Method: STANDARD PLATE); “inactive; negative” (Test System: AMES SALMONELLA TYPHIMURIUM, Strain/Indicator: TA1538, Metabolic Activation: RAT, LIVER, S-9, AROCLOR 1254, Method: STANDARD PLATE).

With `O=C1C(=O)c2c(ccc3ccccc23)-c2ccccc21`, the mutagenic call runs as follows: under setting [1], “inactive; negative”; under setting [15], “inactive; negative”.
